Data taken from US20210284638A1 (Saint Louis University, priority 2018, published 2021).
Where a name gives a salt, the structure may show the parent alone.

Legend:
Format in all cases: binding
[1] = molecular target: T1, Recombinant human integrin αvβ1 (Homo sapiens, UniProt P05556+P06756); experiment: Solid Phase Receptor Assay (SPRA) for αVβ1 function; conditions: plate-bound human fibronectin
T1 construct: purchased R&D Systems 6579-AV
Method: B. Solid Phase Receptor Assay (SPRA) for αVβ1 Function
(§1) Wells were washed 3 times with 150 μL TBS+ and then 150 μL of blocking buffer (TBS+ with 1% bovine serum albumin, Sigma A7906) was added. The plate was incubated for 1 hr at 37° C. and then washed 3× with TBS+ buffer. […] Compounds were diluted to 20 μM and 1 μL was added to each well of the plate according to a standard template with each sample repeated in triplicate. After incubation for two hours at room temperature, the plate was washed 3× with 150 μL of TBS+ buffer. To each well, 50 μL of biotinylated anti-αV antibody (R&D Systems, BAF1219) at 1 μg/mL in TBS+/0.1% BSA were added and the plate covered and incubated for 1 hr at room temperature. After washing the plate 3× with 150 μL of TBS+ buffer, 50 μL of streptavidin-conjugated horseradish peroxidase (R&D Systems, DY998) diluted in TBS+ blocking buffer were added to the wells and the plate incubated for 20 min at room temperature. The plate was washed 3× with TBS+ buffer followed by 50 μL of TMB substrate (Sigma, T4444) added to each well in the dark and the plate incubated for 25 min at room temperature. 25 μL of 1.0 M phosphoric acid was added as a stop solution and the plates were read at 450 nm using a Spectramax plate reader.

[2] = molecular target: T2, Recombinant human integrin αVβ6 (Homo sapiens, UniProt P06756+P18564); experiment: Solid Phase Receptor Assay (SPRA) for αVβ6 function; conditions: plate-bound human LAP
T2 construct: purchased R&D Systems 3817-AV
T2 sequence (P06756 31-992 limits assumed): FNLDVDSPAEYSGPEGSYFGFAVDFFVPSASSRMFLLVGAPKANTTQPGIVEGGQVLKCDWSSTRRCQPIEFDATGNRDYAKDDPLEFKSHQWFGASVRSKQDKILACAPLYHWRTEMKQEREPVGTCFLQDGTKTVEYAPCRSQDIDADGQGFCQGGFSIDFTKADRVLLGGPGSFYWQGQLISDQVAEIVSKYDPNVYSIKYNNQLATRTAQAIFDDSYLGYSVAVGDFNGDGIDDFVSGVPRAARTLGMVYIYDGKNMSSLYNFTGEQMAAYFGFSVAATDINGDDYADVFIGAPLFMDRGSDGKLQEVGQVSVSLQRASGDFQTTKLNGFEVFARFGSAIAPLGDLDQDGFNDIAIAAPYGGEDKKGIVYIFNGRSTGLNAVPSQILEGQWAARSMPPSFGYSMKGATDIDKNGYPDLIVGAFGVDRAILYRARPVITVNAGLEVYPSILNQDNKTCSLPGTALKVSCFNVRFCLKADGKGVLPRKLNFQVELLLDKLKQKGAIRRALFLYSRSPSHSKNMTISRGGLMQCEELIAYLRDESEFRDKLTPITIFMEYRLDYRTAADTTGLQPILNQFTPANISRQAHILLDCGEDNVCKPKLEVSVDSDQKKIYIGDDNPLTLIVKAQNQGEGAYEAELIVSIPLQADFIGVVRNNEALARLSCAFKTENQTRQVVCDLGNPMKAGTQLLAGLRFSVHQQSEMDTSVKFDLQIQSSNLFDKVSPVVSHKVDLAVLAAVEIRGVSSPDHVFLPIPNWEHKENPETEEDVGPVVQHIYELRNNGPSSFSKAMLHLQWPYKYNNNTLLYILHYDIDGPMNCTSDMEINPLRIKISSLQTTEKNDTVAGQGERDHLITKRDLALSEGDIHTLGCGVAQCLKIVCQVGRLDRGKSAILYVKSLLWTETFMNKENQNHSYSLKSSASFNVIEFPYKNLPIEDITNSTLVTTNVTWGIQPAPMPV
T2 sequence (P18564 22-707 limits assumed): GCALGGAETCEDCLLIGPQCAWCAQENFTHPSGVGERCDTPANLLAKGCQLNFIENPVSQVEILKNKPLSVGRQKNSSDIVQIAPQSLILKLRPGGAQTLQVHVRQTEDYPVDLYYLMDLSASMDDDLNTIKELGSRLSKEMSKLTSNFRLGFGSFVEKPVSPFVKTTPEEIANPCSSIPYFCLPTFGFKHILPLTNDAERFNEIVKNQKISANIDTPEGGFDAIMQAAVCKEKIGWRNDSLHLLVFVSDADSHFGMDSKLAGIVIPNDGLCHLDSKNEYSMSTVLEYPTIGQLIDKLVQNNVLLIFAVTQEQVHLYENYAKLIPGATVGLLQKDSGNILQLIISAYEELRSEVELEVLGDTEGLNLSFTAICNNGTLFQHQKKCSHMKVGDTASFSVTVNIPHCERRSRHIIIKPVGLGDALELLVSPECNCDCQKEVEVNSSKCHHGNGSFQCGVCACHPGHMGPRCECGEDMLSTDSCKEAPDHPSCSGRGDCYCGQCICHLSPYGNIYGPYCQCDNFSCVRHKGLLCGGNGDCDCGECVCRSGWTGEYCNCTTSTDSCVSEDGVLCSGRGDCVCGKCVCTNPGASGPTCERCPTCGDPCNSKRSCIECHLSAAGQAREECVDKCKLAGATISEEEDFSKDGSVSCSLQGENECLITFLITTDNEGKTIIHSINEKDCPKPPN
Method: E. Solid Phase Receptor Assay (SPRA) for αVβ6 Function
Wells were washed 3 times with 150 μL TBS+, and then 150 μL of blocking buffer (TBS+ with 1% bovine serum albumin, Sigma A7906) was added. The plate was incubated for 1 hr at 37° C., and then washed 3× with TBS+ buffer. […] Compounds were diluted to 20 μM and then 1 μL was added to each well of the plate according to a standard template with each sample repeated in triplicate. After incubation for two hours at room temperature, the plate was washed 3× with 150 μL of TBS+ buffer. To each well, 50 μL of biotinylated anti-αV antibody (R&D Systems, BAF1219) at 0.5 μg/mL in TBS+/0.1% BSA were added and the plate was covered and incubated for 1 hr at room temperature. After washing the plate 3× with 150 μL of TBS+ buffer, 50 μL of streptavidin-conjugated horseradish peroxidase (R&D Systems, DY998) diluted in TBS+ blocking buffer were added to the wells and the plate incubated for 20 min at room temperature. The plate was washed 3× with TBS+ buffer followed by 50 μL of TMB substrate (Sigma T4444) added to each well in the dark and the plate incubated for 10 min at room temperature. 25 μL of 1.0 M phosphoric acid was added as a stop solution and the plates were read at 450 nm using a Spectramax plate reader.

[3] = molecular target: T3, Recombinant human integrin αVβ8 (Homo sapiens, UniProt P06756+P26012); experiment: Solid Phase Receptor Assay for αVβ8 function; conditions: plate-bound human LAP; read-out: αVβ8 SPRA IC50
T3 construct: purchased R&D Systems 4135-AV
T3 sequence (P06756 31-992 limits assumed): as the sequence (P06756 31-992 limits assumed) above
T3 sequence (P26012 43-684 limits assumed): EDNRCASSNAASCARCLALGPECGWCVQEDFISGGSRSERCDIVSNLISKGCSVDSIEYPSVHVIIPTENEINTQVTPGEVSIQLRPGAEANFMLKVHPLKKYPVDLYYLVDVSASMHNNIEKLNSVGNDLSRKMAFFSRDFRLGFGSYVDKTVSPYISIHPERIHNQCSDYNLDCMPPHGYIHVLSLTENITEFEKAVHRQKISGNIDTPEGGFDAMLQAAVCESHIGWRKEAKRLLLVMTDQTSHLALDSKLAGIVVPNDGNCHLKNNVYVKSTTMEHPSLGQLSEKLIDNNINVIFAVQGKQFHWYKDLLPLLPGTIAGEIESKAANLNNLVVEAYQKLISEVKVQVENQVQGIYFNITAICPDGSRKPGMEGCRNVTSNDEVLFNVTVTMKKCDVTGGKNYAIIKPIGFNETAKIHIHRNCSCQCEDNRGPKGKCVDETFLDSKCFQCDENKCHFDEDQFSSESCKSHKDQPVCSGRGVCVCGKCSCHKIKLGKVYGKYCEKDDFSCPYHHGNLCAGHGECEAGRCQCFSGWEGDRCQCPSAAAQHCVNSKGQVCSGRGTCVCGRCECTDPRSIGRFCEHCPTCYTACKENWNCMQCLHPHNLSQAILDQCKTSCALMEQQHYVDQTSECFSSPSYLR
Method: F. Solid Phase Receptor Assay (SFRA) for αVβ8 Function
Wells were washed 3 times with 150 μL TBS+ and then 150 μL of blocking buffer (TBS+ with 1% bovine serum albumin, Sigma A7906) was added. The plate was incubated for 1 hr at 37° C. and then washed 3× with TBS+. […] Compounds were diluted to 20 μM and 1 μL was added to each well of the plate according to a standard template with each sample repeated in triplicate. After incubation for two hours at room temperature, the plate was washed 3× with 150 μL of TBS+. To each well, 50 μL of biotinylated anti-αV antibody (R&D Systems, BAF1219) at 1 μg/mL in TBS+/0.1% BSA were added and the plate was covered and incubated for 1 hr at room temperature. After washing the plate 3× with 150 μL of TBS+ buffer, 50 μL of streptavidin-conjugated horseradish peroxidase (R&D Systems, DY998) diluted in TBS+ blocking buffer were added to the wells and the plate incubated for 20 min at room temperature. The plate was washed 3× with TBS+ followed by 50 μL of TMB substrate (Sigma T4444) added to each well in the dark and the plate incubated for 10 min at room temperature. 25 μL of 1.0 M phosphoric acid was added as a stop solution and the plates were read at 450 nm using a Spectramax plate reader.

[4] = molecular target: T4, Recombinant human integrin α5β1 (Homo sapiens, UniProt P05556+P08648); experiment: Solid Phase Receptor Assay (SPRA) for α5β1 function; conditions: plate-bound human fibronectin
T4 construct: purchased R&D Systems 3230-A5
T4 sequence (P08648 42-995 limits assumed): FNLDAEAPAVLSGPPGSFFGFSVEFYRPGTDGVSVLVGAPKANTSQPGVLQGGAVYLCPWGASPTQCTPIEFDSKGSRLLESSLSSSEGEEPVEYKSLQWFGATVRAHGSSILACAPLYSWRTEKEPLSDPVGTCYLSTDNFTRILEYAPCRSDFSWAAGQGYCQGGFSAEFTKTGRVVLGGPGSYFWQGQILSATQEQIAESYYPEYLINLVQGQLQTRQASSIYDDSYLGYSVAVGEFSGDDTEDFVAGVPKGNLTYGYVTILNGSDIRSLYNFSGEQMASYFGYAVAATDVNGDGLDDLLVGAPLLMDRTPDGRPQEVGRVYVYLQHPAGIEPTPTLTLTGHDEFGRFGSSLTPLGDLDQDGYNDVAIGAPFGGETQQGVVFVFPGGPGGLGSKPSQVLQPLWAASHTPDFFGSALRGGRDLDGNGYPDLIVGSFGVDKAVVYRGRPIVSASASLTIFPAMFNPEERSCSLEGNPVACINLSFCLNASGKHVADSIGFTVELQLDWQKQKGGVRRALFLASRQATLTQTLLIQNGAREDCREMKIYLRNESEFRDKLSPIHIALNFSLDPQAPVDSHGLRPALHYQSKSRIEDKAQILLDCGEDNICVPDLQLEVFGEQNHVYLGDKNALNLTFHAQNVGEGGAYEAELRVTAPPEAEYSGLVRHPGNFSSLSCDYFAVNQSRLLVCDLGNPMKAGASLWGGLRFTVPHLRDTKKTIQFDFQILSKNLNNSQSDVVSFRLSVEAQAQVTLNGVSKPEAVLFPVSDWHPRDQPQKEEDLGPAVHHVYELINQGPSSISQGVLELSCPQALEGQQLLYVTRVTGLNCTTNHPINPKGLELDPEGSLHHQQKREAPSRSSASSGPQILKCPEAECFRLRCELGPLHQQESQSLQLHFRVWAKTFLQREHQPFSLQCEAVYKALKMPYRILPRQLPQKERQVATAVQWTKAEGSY
T4 sequence (P05556 21-728 limits assumed): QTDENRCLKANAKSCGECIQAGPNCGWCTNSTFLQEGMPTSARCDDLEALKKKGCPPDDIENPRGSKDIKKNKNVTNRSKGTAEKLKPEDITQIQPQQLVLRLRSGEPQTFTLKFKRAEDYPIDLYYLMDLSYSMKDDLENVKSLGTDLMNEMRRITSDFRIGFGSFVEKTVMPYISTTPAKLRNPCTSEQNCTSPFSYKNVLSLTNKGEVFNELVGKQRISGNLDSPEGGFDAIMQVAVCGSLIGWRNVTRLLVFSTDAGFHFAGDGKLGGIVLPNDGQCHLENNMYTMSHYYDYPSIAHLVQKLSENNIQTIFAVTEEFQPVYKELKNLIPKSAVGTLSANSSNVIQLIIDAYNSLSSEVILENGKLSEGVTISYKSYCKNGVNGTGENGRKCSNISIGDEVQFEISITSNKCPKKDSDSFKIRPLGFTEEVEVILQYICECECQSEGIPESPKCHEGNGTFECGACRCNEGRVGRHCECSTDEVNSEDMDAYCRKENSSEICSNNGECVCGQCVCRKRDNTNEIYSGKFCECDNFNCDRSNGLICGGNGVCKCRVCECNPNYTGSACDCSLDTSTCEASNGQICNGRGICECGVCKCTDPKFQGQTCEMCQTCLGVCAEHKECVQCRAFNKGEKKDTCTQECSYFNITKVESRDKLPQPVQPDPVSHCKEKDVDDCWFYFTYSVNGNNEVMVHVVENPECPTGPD
Method: A. Solid Phase Receptor Assay (SPRA) for α5β1 Function
as §1, with “μM and then 1 μL” for “μM and 1 μL”, “of biotinylated anti-α5 antibody (R&D” for “of biotinylated anti-αV antibody (R&D”, “(R&D Systems, BAF1864) at 0.5” for “(R&D Systems, BAF1219) at 1”, “BAF1864) at 0.5 μg/mL in” for “BAF1219) at 1 μg/mL in”, “μL of room temperature TMB substrate” for “μL of TMB substrate”

T1 sequence (P06756 31-992 limits assumed): as the sequence (P06756 31-992 limits assumed) above
T1 sequence (P05556 21-728 limits assumed): as the sequence (P05556 21-728 limits assumed) above

| SMILES | IC50 [1] [nM] | IC50 [2] [nM] | IC50 [3] [nM] | IC50 [4] [nM] |
| --- | --- | --- | --- | --- |
| COc1c(C(C)(C)C)cc(C(CC(=O)O)Cc2csc(CCCc3ccc4c(n3)NCCC4)n2)cc1C(C)(C)C (stereo not drawn) [Example 29, 3-(3,5-di-tert-butyl-4-methoxyphenyl)-4-(2-(3-(5,6,7,8-tetrahydro-1,8-naphthyridin-2-yl)propyl)thiazol-4-yl)butanoic acid] | 7 | 450 | 87 | 40 |
| CC(C)(C)c1cc(C(CC(=O)O)Cc2csc(CCCc3ccc4c(n3)NCCC4)n2)cc(C2(C(F)F)CC2)c1 (stereo not drawn) [Example 30, 3-[3-tert-butyl-5-[1-(difluoromethyl)cyclopropyl]phenyl]-4-[2-[3-(5,6,7,8-tetrahydro-1,8-naphthyridin-2-yl)propyl]thiazol-4-yl]butanoic acid] | 5 | 270 | 25 | 30 |
| CC(C)(C)c1cc(C(CC(=O)O)Cc2csc(CCCc3ccc4c(n3)NCCC4)n2)cc(C(C)(C)C(F)(F)F)c1 (stereo not drawn) [Example 31, 3-[3-tert-butyl-5-(2,2,2-trifluoro-1,1-dimethyl-ethyl)phenyl]-4-[2-[3-(5,6,7,8-tetrahydro-1,8-naphthyridin-2-yl)propyl]thiazol-4-yl]butanoic acid] | 8 | 1700 | 76 | 66 |
| COCC1(c2cc(C(CC(=O)O)Cc3csc(CCCc4ccc5c(n4)NCCC5)n3)cc(C(C)(C)C)c2)CCOCC1 (stereo not drawn) [Example 32, 3-[3-tert-butyl-5-[4-(methoxymethyl)tetrahydropyran-4-yl]phenyl]-4-[2-[3-(5,6,7,8-tetrahydro-1,8-naphthyridin-2-yl)propyl]thiazol-4-yl]butanoic acid] | 7 | 130 | 14 | 37 |
| CC(C)(C)c1ccc(C#N)c(C(CC(=O)O)Cc2csc(CCCc3ccc4c(n3)NCCC4)n2)c1 (stereo not drawn) [Example 33, 3-(5-tert-butyl-2-cyano-phenyl)-4-[2-[3-(5,6,7,8-tetrahydro-1,8-naphthyridin-2-yl)propyl]thiazol-4-yl]butanoic acid] | 2 | 150 | 8 | 0.7 |
| CC(C)(C)c1ccc(Br)c(C(CC(=O)O)Cc2csc(CCCc3ccc4c(n3)NCCC4)n2)c1 (stereo not drawn) [Example 34] | 4 | 3400 | 140 | 69 |
| COc1ccc(C(F)(F)F)cc1C(CC(=O)O)Cc1csc(CCCc2ccc3c(n2)NCCC3)n1 (stereo not drawn) [Example 35, 3-[2-methoxy-5-(trifluoromethyl)phenyl]-4-[2-[3-(5,6,7,8-tetrahydro-1,8-naphthyridin-2-yl)propyl]thiazol-4-yl]butanoic acid] | 5 | 200 | 51 | 88 |
| COc1ccc(C2(C(F)F)CC2)cc1C(CC(=O)O)Cc1csc(CCCc2ccc3c(n2)NCCC3)n1 (stereo not drawn) [Example 36, 3-(5-(1-(difluoromethyl)cyclopropyl)-2-methoxyphenyl)-4-(2-(3-(5,6,7,8-tetrahydro-1,8-naphthyridin-2-yl)propyl)thiazol-4-yl)butanoic acid] | 2 | 120 | 29 | 7 |
| COc1ccc(C2=CCOCC2)cc1C(CC(=O)O)Cc1csc(CCCc2ccc3c(n2)NCCC3)n1 (stereo not drawn) [Example 37, 3-[5-(3,6-dihydro-2H-pyran-4-yl)-2-methoxy-phenyl]-4-[2-[3-(5,6,7,8-tetrahydro-1,8-naphthyridin-2-yl)propyl]thiazol-4-yl]butanoic acid] | 3 | 81 | 83 | 25 |
| COc1ccc(C2=CCOCC2)cc1[C@H](CC(=O)O)Cc1csc(CCCc2ccc3c(n2)NCCC3)n1 [Example 37A, (S)-3-(5-(3,6-dihydro-2H-pyran-4-yl)-2-methoxyphenyl)-4-(2-(3-(5,6,7,8-tetrahydro-1,8-naphthyridin-2-yl)propyl)thiazol-4-yl)butanoic acid trifluoroacetate] | 0.9 | 31 | 43 | 17 |
| COc1ccc(C2=CCOCC2)cc1[C@@H](CC(=O)O)Cc1csc(CCCc2ccc3c(n2)NCCC3)n1 [Example 37B, (R)-3-(5-(3,6-dihydro-2H-pyran-4-yl)-2-methoxyphenyl)-4-(2-(3-(5,6,7,8-tetrahydro-1,8-naphthyridin-2-yl)propyl)thiazol-4-yl)butanoic acid trifluoroacetate] | 190 | 3000 | 5600 | 2800 |
| Cc1cc(C)n(-c2cccc(C(CC(=O)O)Cc3csc(CCc4ccc5c(n4)NCCC5)n3)c2)n1 (stereo not drawn) [Example 38, 3-(3-(3,5-dimethyl-1H-pyrazol-1-yl)phenyl)-4-(2-(2-(5,6,7,8-tetrahydro-1,8-naphthyridin-2-yl)ethyl)thiazol-4-yl)butanoic acid] | 15 | 240 | 2700 | 420 |
| CC(C)(C)c1cc(C(CC(=O)O)Cc2cc(OCCc3ccc4c(n3)NCCC4)n(CC(F)(F)F)n2)cc(C(C)(C)C)c1 (stereo not drawn) [Example 40, 3-(3,5-di-tert-butylphenyl)-4-(5-(2-(5,6,7,8-tetrahydro-1,8-naphthyridin-2-yl)ethoxy)-1-(2,2,2-trifluoroethyl)-1H-pyrazol-3-yl)butanoic acid trifluoroacetate] | 3 | 790 | 30 | 6 |
| Cn1nc(CC(CC(=O)O)c2cc(C(C)(C)C#N)cc(C(C)(C)C#N)c2)cc1OCCc1ccc2c(n1)NCCC2 (stereo not drawn) [Example 41, 3-(3,5-bis(2-cyanopropan-2-yl)phenyl)-4-(1-methyl-5-(2-(5,6,7,8-tetrahydro-1,8-naphthyridin-2-yl)ethoxy)-1H-pyrazol-3-yl)butanoic acid trifluoroacetate] | 1 | 37 | 1 | 0.3 |
| COc1ccc(C2=CCOCC2)cc1C(CC(=O)O)Cc1cc(OCCc2ccc3c(n2)NCCC3)n(C)n1 (stereo not drawn) [Example 42] | 2 | 17 | 41 | 10 |
